These results are taken from paper PMC9597353, “Mitoguardin-2–mediated lipid transfer preserves mitochondrial morphology and lipid droplet formation” (The Journal of Cell Biology, 2022).

Series [1] has as its target T1, hMIGA2long (Homo sapiens, UniProt Q7L4E1).
T1 construct: gene MIGA2; N-terminal 3xFLAG (Expi293F) and/or C-terminal His6 (E. coli), tags kept; dimer
T1 sequence (Q7L4E1 170-593): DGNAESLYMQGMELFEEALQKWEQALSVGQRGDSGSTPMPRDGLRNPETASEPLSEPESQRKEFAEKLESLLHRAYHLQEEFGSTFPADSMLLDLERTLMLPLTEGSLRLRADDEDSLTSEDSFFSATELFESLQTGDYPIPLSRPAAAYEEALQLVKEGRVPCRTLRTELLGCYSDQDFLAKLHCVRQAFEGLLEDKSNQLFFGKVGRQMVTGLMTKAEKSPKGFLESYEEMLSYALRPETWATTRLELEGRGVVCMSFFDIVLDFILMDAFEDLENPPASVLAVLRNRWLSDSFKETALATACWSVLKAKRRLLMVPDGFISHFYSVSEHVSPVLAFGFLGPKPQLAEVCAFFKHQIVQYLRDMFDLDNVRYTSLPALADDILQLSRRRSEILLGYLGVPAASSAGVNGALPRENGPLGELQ
Briefly: native PAGE co-migration, NBD fluorescence. Format: binding. To be noted: labelled compound; on ice 2 h.

The next series concerns the target T2, hMIGA2C (Homo sapiens, UniProt Q7L4E1).
T2 construct: gene MIGA2; C-terminal domain only, residues 306-593, C-terminal His6 kept, expressed in E. coli BL21(DE3); monomer by SEC
T2 sequence (Q7L4E1 306-593): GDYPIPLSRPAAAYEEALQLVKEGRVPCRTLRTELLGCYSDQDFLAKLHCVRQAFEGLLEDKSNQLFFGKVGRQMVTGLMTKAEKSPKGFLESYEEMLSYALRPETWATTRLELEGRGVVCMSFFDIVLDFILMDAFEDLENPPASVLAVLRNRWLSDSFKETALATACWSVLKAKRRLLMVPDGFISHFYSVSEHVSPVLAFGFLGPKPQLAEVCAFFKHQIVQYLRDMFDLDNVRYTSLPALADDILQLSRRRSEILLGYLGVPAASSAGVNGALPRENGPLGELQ
Briefly: end-point lipid transfer between tethered liposomes. The class given is biochemical. The settings on record: labelled compound; 0.32 µM protein, 2% NBD-lipid in donor liposomes, 30 min.

In series [2] the target is T3, hMIGA2long (Homo sapiens, UniProt Q7L4E1, R357N/S428G).
T3 construct: gene MIGA2; N-terminal 3xFLAG (Expi293F) and/or C-terminal His6 (E. coli), tags kept; dimer
T3 sequence (Q7L4E1 170-593 R357N/S428G): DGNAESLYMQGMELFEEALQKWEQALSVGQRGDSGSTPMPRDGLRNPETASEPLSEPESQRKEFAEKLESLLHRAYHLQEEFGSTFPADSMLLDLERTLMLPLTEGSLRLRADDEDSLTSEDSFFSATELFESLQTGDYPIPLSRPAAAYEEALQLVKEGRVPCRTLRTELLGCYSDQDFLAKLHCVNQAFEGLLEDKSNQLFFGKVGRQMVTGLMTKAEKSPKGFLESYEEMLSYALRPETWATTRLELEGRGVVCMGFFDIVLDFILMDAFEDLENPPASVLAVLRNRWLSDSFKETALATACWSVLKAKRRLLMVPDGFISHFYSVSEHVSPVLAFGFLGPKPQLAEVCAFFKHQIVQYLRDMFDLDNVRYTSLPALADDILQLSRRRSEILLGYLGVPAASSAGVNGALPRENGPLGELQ
Briefly: FRET lipid transfer between tethered liposomes. Format: biochemical. The settings on record: labelled compound; 0.25 µM protein, 30°C; mutant M3, 3xFLAG and His6 tags.

Series [3] has as its target T4, hMIGA2long (Homo sapiens, UniProt Q7L4E1, V376D/L438E/F495H/I528K).
T4 construct: gene MIGA2; N-terminal 3xFLAG (Expi293F) and/or C-terminal His6 (E. coli), tags kept; dimer
T4 sequence (Q7L4E1 170-593 V376D/L438E/F495H/I528K): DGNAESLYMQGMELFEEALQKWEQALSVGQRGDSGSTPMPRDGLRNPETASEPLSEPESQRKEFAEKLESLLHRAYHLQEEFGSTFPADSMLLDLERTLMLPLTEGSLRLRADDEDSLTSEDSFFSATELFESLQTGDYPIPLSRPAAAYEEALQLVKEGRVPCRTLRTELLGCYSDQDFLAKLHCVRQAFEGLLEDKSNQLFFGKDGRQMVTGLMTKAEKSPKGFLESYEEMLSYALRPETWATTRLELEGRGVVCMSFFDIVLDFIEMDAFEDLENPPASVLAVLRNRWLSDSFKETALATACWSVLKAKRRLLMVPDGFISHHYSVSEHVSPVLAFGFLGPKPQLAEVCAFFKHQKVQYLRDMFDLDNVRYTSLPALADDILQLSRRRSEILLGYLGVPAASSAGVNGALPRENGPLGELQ
Briefly: FRET lipid transfer between tethered liposomes. Format: biochemical. To be noted: labelled compound; 0.25 µM protein, 30°C; mutant M1, 3xFLAG and His6 tags.

Series [4] addresses T5, hMIGA2long (Homo sapiens, UniProt Q7L4E1, V381E/V502K/L506D/F524H).
T5 construct: gene MIGA2; N-terminal 3xFLAG (Expi293F) and/or C-terminal His6 (E. coli), tags kept; dimer
T5 sequence (Q7L4E1 170-593 V381E/V502K/L506D/F524H): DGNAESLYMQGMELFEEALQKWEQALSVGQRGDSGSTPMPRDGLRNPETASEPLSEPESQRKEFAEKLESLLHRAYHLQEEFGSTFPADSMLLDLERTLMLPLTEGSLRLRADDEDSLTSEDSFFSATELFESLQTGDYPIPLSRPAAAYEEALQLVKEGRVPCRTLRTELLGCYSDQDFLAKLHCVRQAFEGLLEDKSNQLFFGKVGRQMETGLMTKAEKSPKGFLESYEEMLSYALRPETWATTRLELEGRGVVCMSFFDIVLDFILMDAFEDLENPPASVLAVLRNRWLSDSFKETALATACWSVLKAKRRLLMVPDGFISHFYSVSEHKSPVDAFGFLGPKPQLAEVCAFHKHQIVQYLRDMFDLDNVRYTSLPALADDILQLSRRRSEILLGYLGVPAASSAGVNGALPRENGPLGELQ
In words: FRET lipid transfer between tethered liposomes. To be noted: labelled compound; 0.25 µM protein, 30°C; mutant M2, 3xFLAG and His6 tags. The class given is biochemical.

The target of series [5] is T1, hMIGA2long. Briefly: FRET lipid transfer between tethered liposomes. The settings on record: labelled compound; 0.25 µM protein, 2% NBD-lipid in donor liposomes, 30°C. The class given is biochemical.
In series [6] the target is human MIGA2 cytosolic fragment with part of the linker region (coiled-coil) and the C-terminal domain, C-terminal 6xhis (human) (UniProt Q7L4E1). Briefly: native MS; 200 mM ammonium acetate, 2 mM DTT; protein 1-5 μM; Q Exactive UHMR.
Series [7] deals with the molecule itself. Briefly: SEC; Superdex 200 16/60, with size standards. (In general: Size exclusion chromatography separates by hydrodynamic size, large species first.)

For the molecule `CCCCCCCC/C=C\CCCCCCCC(=O)OC[C@H](COP(=O)(O)O)OC(=O)CCCCCCCCCCCNc1ccc([N+](=O)[O-])c2nonc12` [NBD-PAacyl], the “native PAGE co-migration, NBD fluorescence” value (from here on “native PAGE co-migration”) at hMIGA2long [1] is “Phospholipids (NBD-PAacyl, NBD-PCacyl NBD-PShead, NBD-PEacyl) visualized by their fluorescence, comigrated with protein”. Besides, at hMIGA2C, the “end-point lipid transfer between tethered liposomes” value is “Both hMIGA2long and hMIGA2C transport NBD-PEacyl, -PSacyl, -PAacyl, and NBD-PCacyl”.

For `CCCCCCCC/C=C\CCCCCCCC(=O)OC[C@H](COP(=O)([O-])OCC[N+](C)(C)C)OC(=O)CCCCCCCCCCCNc1ccc([N+](=O)[O-])c2nonc12` [NBD-PCacyl], the “native PAGE co-migration” value at hMIGA2long [1] was “Phospholipids (NBD-PAacyl, NBD-PCacyl NBD-PShead, NBD-PEacyl) visualized by their fluorescence, comigrated with protein”. Further, the “end-point lipid transfer between tethered liposomes” value at hMIGA2C was “Both hMIGA2long and hMIGA2C transport NBD-PEacyl, -PSacyl, -PAacyl, and NBD-PCacyl”.

Consider `CCCCCCCC/C=C\CCCCCCCC(=O)OC[C@H](COP(=O)(O)OCCN)OC(=O)CCCCCCCCCCCNc1ccc([N+](=O)[O-])c2nonc12` [NBD-PEacyl], for which the lipid transfer impaired entry at hMIGA2long [2] is reported as “all three mutant constructs (M1, M2, M3) are lipid transfer impaired”; at hMIGA2long [3], “all three mutant constructs (M1, M2, M3) are lipid transfer impaired”; at hMIGA2long [4] it was “all three mutant constructs (M1, M2, M3) are lipid transfer impaired”. The “native PAGE co-migration” value at hMIGA2long [1] was “Phospholipids (NBD-PAacyl, NBD-PCacyl NBD-PShead, NBD-PEacyl) visualized by their fluorescence, comigrated with protein”. The “end-point lipid transfer between tethered liposomes” value at hMIGA2C was “Both hMIGA2long and hMIGA2C transport NBD-PEacyl, -PSacyl, -PAacyl, and NBD-PCacyl”.

Take `CCCCCCCC/C=C\CCCCCCCC(=O)OC[C@H](COP(=O)(O)OC[C@H](N)C(=O)O)OC(=O)CCCCCCCCCCCNc1ccc([N+](=O)[O-])c2nonc12` [NBD-PSacyl]: the “FRET lipid transfer between tethered liposomes” value at hMIGA2long [5] is “hMIGA2long can transport NBD-PSacyl, NBD-PAacyl, NBD-PEacyl, and NBD-PCacyl”. Besides, the “end-point lipid transfer between tethered liposomes” value on hMIGA2C was “Both hMIGA2long and hMIGA2C transport NBD-PEacyl, -PSacyl, -PAacyl, and NBD-PCacyl”.

In the case of `CCCCCCCC/C=C\CCCCCCCC(=O)OC[C@H](COP(=O)(O)OC[C@H](Nc1ccc([N+](=O)[O-])c2nonc12)C(=O)O)OC(=O)CCCCCCC/C=C\CCCCCCCC` [NBD-PShead], on hMIGA2long [1], the “native PAGE co-migration” value is recorded as “Phospholipids (NBD-PAacyl, NBD-PCacyl NBD-PShead, NBD-PEacyl) visualized by their fluorescence, comigrated with protein”.

In series [6], “human MIGA2 cytosolic fragment with part of the linker region (coiled-coil) and the C-terminal domain, C-terminal 6xhis (from UniProt Q7L4E1 170-593) (domain or fragment)” had a stoichiometry N of 2.

B1: C. elegans MIGA2 cytosolic fragment with the coiled-coil of the linker region and the C-terminal domain (residues 106-496) (domain or fragment, UniProt Q21096 106-496, looked up)
chain: SMNPIEADITSGQELCTELRKTIEKVHHNLEMVKNRSSKDMERSIKIEGILKGLKQVEDEIVLLVPQMEDFRDDNMEFYSVSGGSGYAGSVRTGRSRTLSVLSDDSFRSAVEEFACDIDDIDFVSDAANLDKNELRFLDEGMQAALNGEVKYRKSRMEFCKCDSETDFAAKLYCVRQALTNALKDEHKRVWLAKCGRTLLADFIRHTKQDPVKFFNAYDEMLEYVSNDRNEEQLRQDVEGRGVCETGFYDVAIDFIILDAFEDLKSPPSAVYSVTKNYFMSMSMKYSTLNTIIWSIIKSKRQRLKNPDGFIAKFYNISETVMPAITLGFLGTDERLGELCQYFKEQVVQFVLDVFNTQKVCYRSLEEMSEDVWIVMRNRLEAVQTRMSNEL
notes: C. elegans MIGA (mitoguardin homolog), Uniprot Q21096, residues 106-496: coiled-coil segment of the linker region and the C-terminal domain; Co-purifies with glycerophospholipid from E. coli; Plasmids of the study are in Addgene (192832, 192833, 192834, 192835, 192837, 192866, 192867); also called CeMIGA2_(long); CeMIGA_(long); source: E. coli C43 (DE3), purified (Ni-NTA, sumo protease, second …)
For B1, the “stoichiometry N” value in series [7] was 2.

As usually defined, the stoichiometry N is a count of units in the complex or per binding partner.
